Assays:
[1] = target: AKT1 mutant with enlarged ATP binding pocket (Homo sapiens, UniProt P31749, M227G); settings: cited from earlier work
[2] = target: T1, wild type AKT1 (Homo sapiens, UniProt P31749); settings: in vitro; cited from earlier work
Target sequence in this assay (P31749 whole entry, species assumed): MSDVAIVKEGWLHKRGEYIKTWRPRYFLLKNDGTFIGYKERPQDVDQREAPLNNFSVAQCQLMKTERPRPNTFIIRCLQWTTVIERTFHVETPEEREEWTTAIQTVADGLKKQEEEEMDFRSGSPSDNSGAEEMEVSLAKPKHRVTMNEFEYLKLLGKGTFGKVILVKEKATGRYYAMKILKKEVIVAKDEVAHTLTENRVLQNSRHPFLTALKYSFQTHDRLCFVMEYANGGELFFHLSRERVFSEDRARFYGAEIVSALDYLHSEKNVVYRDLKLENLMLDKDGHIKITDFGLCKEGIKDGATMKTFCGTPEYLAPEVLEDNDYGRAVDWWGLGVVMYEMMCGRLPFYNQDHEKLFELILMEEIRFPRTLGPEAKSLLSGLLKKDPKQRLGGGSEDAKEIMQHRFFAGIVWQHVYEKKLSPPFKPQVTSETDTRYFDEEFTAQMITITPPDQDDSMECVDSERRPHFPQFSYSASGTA

[3] = target: T2, mutant AKT1 (M227G) (Homo sapiens, UniProt P31749, M227G); assay: Intracellular A*TPγS delivery and thio-phosphorylation assay, cells transfected with mutant AKT1; format: cell-based
T2 construct: mutagenesis by GENEWIZ pcDNA3-myr-HA-AKT1 1036; host or cells: HCT116
Protocol: (§1) Plasmid constructs. Wild type AKT1 plasmid was purchased from Addgene (Addgene plasmid pcDNA3-myr-HA-AKT1 1036). Point mutation as in references (37) of the ATP-binding pocket gatekeeper amino acid (M227G) were introduced by GENEWIZ (New Jersey, USA), with a modified Strategene QuikChange® site-directed mutagenesis method.
(§2) Expression plasmid transfection. The HCT116 cells were plated into […] dishes and transfected at approximately 90% confluence with the specified plasmid (wild type pcDNA3-myr-HA-AKT1 plasmid or the mutant pcDNA3-myr-HA-AKT1 plasmid) using BP-Fectin mammalian cell transfection reagent (BioPioneer, USA) in accordance with the manufacturer's instructions. One untransfected dish was used as a negative control. After 72 hours, cells were washed twice with cold PBS. Transfection efficacy was confirmed by western-blot measurement of the expression of the HA-tagged fusion proteins with the HA tag monoclonal antibody (Thermo Fisher Scientific, USA).
(§3) Intracellular A*TPγS delivery and thio-phosphorylation assays. Control and transfected HCT116 cells were incubated with A*TPγS-loaded LCP nanoparticles for 4 hours. The cells were washed by cold PBS twice and then lysed with RIPA buffer (which contains protease and phosphatase inhibitors) for 30 minutes at 4° C. The cell lysates were treated with 2.5 mM PNBM at room temperature for 1 hour. Then, the PNBM treated cell lysates were analyzed with a western blot assay to measure protein thio-phosphorylation with the anti-thiophosphate ester rabbit monoclonal antibodies (Abcam, USA).
Immunoprecipitation assays. The PNBM-treated cell lysates were pre-cleaned by an off-target antibody. Then the cleaned cell lysates were incubated with 10 μL anti-thiophosphate ester rabbit monoclonal antibody (Abcam, USA) at 4° C. for 12 hours. 100 μL protein G beads (Thermo Fisher Scientific, USA) were mixed under rotary agitation at 4° C. for 4 hours, washed twice by wash buffer, and the beads were collected. […]
(§4) Western blotting assay. First, total protein concentrations of the cell lysates were determined by a BCA protein assay kit (Thermo, USA). […]

[4] = target: T3, AKT2 (Homo sapiens, UniProt P31751); assay: Live cell AKT substrate tagging, cells transfected with WT AKT2; format: cell-based; settings: HCT116 cells, WT-AKT expression vector (AKT1 and AKT2 stated together), A*TPγS delivery
T3 construct: expressed in transfected cells; host or cells: HCT116
Protocol: as §3
(§5) Immunoprecipitation assays. The PNBM-treated cell lysates were pre-cleaned by an off-target antibody. Then the cleaned cell lysates were incubated with 10 μL anti-thiophosphate ester rabbit monoclonal antibody (Abcam, USA) at 4° C. for 12 hours. 100 μL protein G beads (Thermo Fisher Scientific, USA) were mixed under rotary agitation at 4° C. for 4 hours, washed twice by wash buffer, and the beads were collected. Then, proteins were captured in the beads and released by elution buffer. The elution buffer was collected and stored at −80° C.
(§6) Western blotting assay. First, total protein concentrations of the cell lysates were determined by a BCA protein assay kit (Thermo, USA). Protein extracts were separated by SDS-PAGE, then transferred onto a nitrocellulose membrane (NC membrane). […]

[5] = target: T1, wild type AKT1; assay: Intracellular A*TPγS delivery and thio-phosphorylation assay, cells transfected with wild type AKT1; format: cell-based; design: host or cells: HCT116
Protocol: as §1, §2
Target sequence in this assay (P31749 whole entry): as the sequence (P31749 whole entry, species assumed) above
Intracellular A*TPγS delivery and thio-phosphorylation assays. […] Then, the PNBM treated cell lysates were analyzed with a western blot assay to measure protein thio-phosphorylation with the anti-thiophosphate ester rabbit monoclonal antibodies (Abcam, USA). […]
as §4

[6] = target: T4, AKT2^M-G (Homo sapiens, UniProt P31751, M229G); assay: Live cell AKT substrate tagging, cells transfected with AKT2^M-G; format: cell-based; settings: HCT116 cells, AKT^M-G expression vector (AKT1 and AKT2 stated together), A*TPγS delivery
T4 construct: expressed in transfected cells; host or cells: HCT116
Protocol: as §3, §5, §6

[7] = target: T5, Akt1M-G (Homo sapiens, UniProt P31749, M227G); assay: Preliminary fluorogenic experiment with nanoparticle loaded with TNP-A*TP and alexa-fluo-647-ATP; format: cell-based; settings: nanoparticle with TNP-A*TP and alexa-fluo-647-ATP 10:1
T5 construct: expressed in transfected cells
Protocol: The cells transfected with Akt1M-G or WT Akt1 expression vectors were treated with the nanoparticle. Alexa-fluo-647-ATP signal monitored nanoparticle delivery in all cells (FIG. 10A-D).

T2 sequence (P31749 whole entry M227G): as the sequence (P31749 whole entry, species assumed) above, with M227G counted along it
T5 sequence (P31749 whole entry M227G): as the sequence (P31749 whole entry, species assumed) above, with M227G counted along it
T4 sequence (P31751 whole entry M229G): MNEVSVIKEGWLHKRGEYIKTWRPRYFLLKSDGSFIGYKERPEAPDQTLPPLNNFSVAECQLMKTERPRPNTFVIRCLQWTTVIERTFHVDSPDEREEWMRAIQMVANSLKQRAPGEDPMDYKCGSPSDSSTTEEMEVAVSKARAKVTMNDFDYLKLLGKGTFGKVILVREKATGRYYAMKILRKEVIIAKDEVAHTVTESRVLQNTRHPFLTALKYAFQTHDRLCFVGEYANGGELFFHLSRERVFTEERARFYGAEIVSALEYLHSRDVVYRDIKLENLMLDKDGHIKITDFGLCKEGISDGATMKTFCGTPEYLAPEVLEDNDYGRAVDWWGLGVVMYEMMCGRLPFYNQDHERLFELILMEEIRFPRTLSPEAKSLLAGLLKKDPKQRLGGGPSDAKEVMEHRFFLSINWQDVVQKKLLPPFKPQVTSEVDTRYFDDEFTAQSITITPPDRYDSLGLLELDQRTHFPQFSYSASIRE
Chain of AKT1 mutant with enlarged ATP binding pocket (P31749 whole entry M227G): as the sequence (P31749 whole entry, species assumed) above, with M227G counted along it
T3 sequence (P31751 whole entry): as the sequence (P31751 whole entry M229G) above, with G229M counted along it

O=P(O)(O)OP(=O)(O)OP(=O)(O)OC[C@H]1O[C@@H](n2cnc3c(NCc4ccccc4)ncnc32)[C@H](O)[C@@H]1O [A*TP, N^6-Benzyl-ATP]
binding to AKT1 mutant with enlarged ATP binding pocket [1]: has been shown to bind

Nc1ncnc2c1ncn2[C@@H]1O[C@H](COP(=O)(O)OP(=O)(O)OP(O)(O)=S)[C@@H](O)[C@H]1O [ATPγS]
utilization by wild type AKT1 to tag substrate GSK3β [2]: can be utilized by wild type AKT1 to tag its substrate GSK3β in vitro

N^6-Benzyladenosine-5′-(3-thiotriphosphate) [A*TPγS]
AKT1 auto-thiophosphorylation: HA-tag Western blot of anti-thiophosphate-ester immunoprecipitant ([3]; HCT116 cells, mutant AKT1 vector, A*TPγS-loaded LCP nanoparticle 4 hours, PNBM alkylation): detected | thiophosphorylation of AKT1 substrate IKKalpha: IKKalpha Western blot of anti-thiophosphate-ester immunoprecipitant ([3]; HCT116 cells, mutant AKT1 vector, A*TPγS-loaded LCP nanoparticle, PNBM alkylation): detected | proteins immunoprecipitated by thiophosphate ester antibody (SDS-PAGE, silver blue coomassie stain) ([3]; lysate of mutant-AKT1-expressing HCT116 cells treated with the nanoparticle): immunoprecipitate at high quantities a large number of proteins | thio-phosphorylation by Western blot with alkylated thiophosphate-tag antibody [4]: not those of WT-AKT transfected cells | AKT1 auto-thiophosphorylation: HA-tag Western blot of anti-thiophosphate-ester immunoprecipitant ([5]; HCT116 cells, wild type AKT1 vector, A*TPγS-loaded LCP nanoparticle 4 hours, PNBM alkylation): not detected | proteins immunoprecipitated by thiophosphate ester antibody (SDS-PAGE, silver blue coomassie stain) ([5]; lysate of wild-type-AKT1-expressing HCT116 cells treated with the nanoparticle): not from that of wild-type-AKT1-expressing cells | thio-phosphorylation by Western blot with alkylated thiophosphate-tag antibody [6]: detected thio-phosphorylation

TNP-N^6-Benzyl-ATP [TNP-A*TP]
TNP-A*TP fluorescence signal, subcellular localization ([7]; Akt1M-G-expressing cells): localized mainly to cell membrane | TNP-A*TP fluorescence signal, specificity ([7]; cells transfected with Akt1M-G or WT Akt1 vectors): specific to Akt1M-G-expressing cells
